Where a name gives a salt, the structure may show the parent alone.
Target: T1, human CTPS1 (Homo sapiens, UniProt P17812)
T1 sequence (P17812 1-591): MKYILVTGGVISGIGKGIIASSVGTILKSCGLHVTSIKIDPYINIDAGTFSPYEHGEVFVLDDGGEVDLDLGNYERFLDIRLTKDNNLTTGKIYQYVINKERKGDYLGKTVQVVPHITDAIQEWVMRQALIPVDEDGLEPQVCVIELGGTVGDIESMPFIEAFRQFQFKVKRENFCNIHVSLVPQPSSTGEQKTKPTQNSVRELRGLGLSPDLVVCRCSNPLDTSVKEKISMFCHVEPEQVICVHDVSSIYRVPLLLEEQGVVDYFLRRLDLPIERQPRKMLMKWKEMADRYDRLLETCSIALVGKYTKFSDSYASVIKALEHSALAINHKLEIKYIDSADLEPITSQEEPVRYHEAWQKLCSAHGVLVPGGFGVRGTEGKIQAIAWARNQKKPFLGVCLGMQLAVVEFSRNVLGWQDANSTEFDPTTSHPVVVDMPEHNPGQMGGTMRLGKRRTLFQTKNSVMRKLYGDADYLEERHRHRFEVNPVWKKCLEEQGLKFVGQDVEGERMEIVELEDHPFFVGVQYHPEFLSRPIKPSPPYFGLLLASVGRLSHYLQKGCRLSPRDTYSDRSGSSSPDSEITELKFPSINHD
Experiment: ADP-Glo assay, human CTPS1 enzyme inhibition
Type: biochemical
Conditions: wild-type human CTPS1 25 nM; ATP 120 μM, UTP 160 μM, GTP 60 μM, L-glutamine 100 μM; 25 degrees C.; read-out: ADP-Glo_WT_hCTPS1—25 nM_IC50 (IC50)
How it was run: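 Full-length tagged human CTPS1 (25 nM) pre-incubated 10 min at 25° C with compound, then 10 min with ATP (120 μM) and UTP (160 μM); reaction started with L-glutamine (100 μM) and GTP (60 μM), 1% DMSO, in HEPES pH 7.4, 10 mM Mg2+, 5 mM KCl, 2 mM DTT. Run within linear phase at 25° C; ADP measured by ADP-Glo luminescence.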

| IC50 | SMILES |
| --- | --- |
| 5 to 25 nM | COC[C@@H](NC(=O)c1ncc(-c2cnn3ccc(Cl)cc23)s1)c1nccc(NS(=O)(=O)C2CC2)c1F (single isomer, unassigned) [II-2] |
| 5 to 25 nM | CCOc1cncc(-c2cnc(C(=O)N[C@H](c3nccc(NS(=O)(=O)C4CC4)c3F)[C@@H]3CCOC3)s2)n1 (single isomer, unassigned) [II-18] |
| 5 to 25 nM | CCOc1cncc(-c2cnc(C(=O)N[C@H](COC)c3cc(NS(=O)(=O)C4CC4)ncn3)s2)n1 (single isomer, unassigned) [II-8] |

Same assay, conditions: wild-type human CTPS1, 25 nM enzyme; ADP-Glo; read-out: ADP-Glo_WT_hCTPS1—25 nM_IC50 (IC50)

| IC50 | SMILES |
| --- | --- |
| 5 to 25 nM | CCOc1cncc(-c2cnc(C(=O)N[C@H](CCN3CCC(F)CC3)c3cc(NS(=O)(=O)C4CC4)ccn3)s2)n1 (single isomer, unassigned) [I-16] |
| ≤ 5 nM | CCOc1cncc(-c2cnc(C(=O)N[C@]3(c4cc(NS(=O)(=O)C5CC5)ccn4)C[C@H](O)C3)s2)n1 [I-87, N-((1s,3s)-1-(4-(cyclopropanesulfonamido)pyridin-2-yl)-3-hydroxycyclobutyl)-5-(6-ethoxypyrazin-2-yl)thiazole-2-carboxamide] |
| 5 to 25 nM | CCOc1cncc(-c2cnc(C(=O)N[C@@H](CN3CC[C@](C)(O)C3)c3cc(NS(=O)(=O)C4CC4)ccn3)s2)n1 [I-130, N-((S)-1-(4-(cyclopropanesulfonamido)pyridin-2-yl)-2-((S)-3-hydroxy-3-methylpyrrolidin-1-yl)ethyl)-5-(6-ethoxypyrazin-2-yl)thiazole-2-carboxamide] |
| 25 to 50 nM | CCOc1cncc(-c2cnc(C(=O)N[C@@H](CN3C[C@H]4C[C@@H]3CO4)c3cncc(NS(=O)(=O)C4CC4)n3)s2)n1 [I-252, N-((S)-2-((1R,4R)-2-oxa-5-azabicyclo[2.2.1]heptan-5-yl)-1-(6-(cyclopropanesulfonamido)pyrazin-2-yl)ethyl)-5-(6-ethoxypyrazin-2-yl)thiazole-2-carboxamide, formic acid salt] |
| 5 to 25 nM | CCOc1cncc(-c2cnc(C(=O)N[C@H](CN3CC[C@@]4(CCOC4)C3)c3cc(NS(=O)(=O)C4CC4)ccn3)s2)n1 [I-126, N-((R)-1-(4-(cyclopropanesulfonamido)pyridin-2-yl)-2-((R)-2-oxa-7-azaspiro[4.4]nonan-7-yl)ethyl)-5-(6-ethoxypyrazin-2-yl)thiazole-2-carboxamide] |
| 5 to 25 nM | CCOc1cncc(-c2cnc(C(=O)N[C@@H](c3cc(NS(=O)(=O)C4CC4)ccn3)[C@@H]3CCCO3)s2)n1 [I-61, N-((S)-(4-(cyclopropanesulfonamido)pyridin-2-yl)((S)-tetrahydrofuran-2-yl)methyl)-5-(6-ethoxypyrazin-2-yl)thiazole-2-carboxamide] |
| 5 to 25 nM | CCOc1cncc(-c2cnc(C(=O)N[C@@H](CN3CCCCC3)c3cccc(NS(=O)(=O)C(F)F)c3)s2)n1 [I-219, (R)-N-(1-(3-((difluoromethyl)sulfonamido)phenyl)-2-(piperidin-1-yl)ethyl)-5-(6-ethoxypyrazin-2-yl)thiazole-2-carboxamide] |
| 25 to 50 nM | CCOc1cncc(-c2cnc(C(=O)N[C@H](c3cc(NS(=O)(=O)C4CC4)ccn3)[C@H]3CCCO3)s2)n1 [I-59, N-((R)-(4-(cyclopropanesulfonamido)pyridin-2-yl)((R)-tetrahydrofuran-2-yl)methyl)-5-(6-ethoxypyrazin-2-yl)thiazole-2-carboxamide] |
| 5 to 25 nM | CCOc1cncc(-c2cnc(C(=O)N[C@H](c3cc(NS(=O)(=O)C4CC4)ccn3)[C@@H](C)O)s2)n1 [I-267, N-((1R,2R)-1-(4-(cyclopropanesulfonamido)pyridin-2-yl)-2-hydroxypropyl)-5-(6-ethoxypyrazin-2-yl)thiazole-2-carboxamide] |
| ≤ 5 nM | CCOc1cncc(-c2cnc(C(=O)N[C@H](c3cccc(NS(=O)(=O)C(F)F)c3)[C@H](C)CO)s2)n1 [I-242, N-((1S,2S)-1-(3-((difluoromethyl)sulfonamido)phenyl)-3-hydroxy-2-methylpropyl)-5-(6-ethoxypyrazin-2-yl)thiazole-2-carboxamide] |
| 5 to 25 nM | CCOc1cncc(-c2cnc(C(=O)N[C@@H](c3cc(NS(=O)(=O)C4CC4)ccn3)[C@H](C)OC)s2)n1 [I-44, N-((1S,2S)-1-(4-(cyclopropanesulfonamido)pyridin-2-yl)-2-methoxypropyl)-5-(6-ethoxypyrazin-2-yl)thiazole-2-carboxamide] |
| 5 to 25 nM | CCOc1cncc(-c2cnc(C(=O)N[C@@H](CN3CCCC3=O)c3cc(NS(=O)(=O)C4CC4)ccn3)s2)n1 [I-138, (S)-N-(1-(4-(cyclopropanesulfonamido)pyridin-2-yl)-2-(2-oxopyrrolidin-1-yl)ethyl)-5-(6-ethoxypyrazin-2-yl)thiazole-2-carboxamide] |
| 5 to 25 nM | CCOc1cncc(-c2cnc(C(=O)N[C@@H](COC)c3ccnc(NS(=O)(=O)C4CC4)n3)s2)n1 [I-281, (R)-N-(1-(2-(cyclopropanesulfonamido)pyrimidin-4-yl)-2-methoxyethyl)-5-(6-ethoxypyrazin-2-yl)thiazole-2-carboxamide] |
| 25 to 50 nM | CCOc1cncc(-c2cnc(C(=O)N[C@@H](CN3CCOC[C@H]3C)c3cc(NS(=O)(=O)C4CC4)ccn3)s2)n1 (single isomer, unassigned) [I-32] |
| 5 to 25 nM | CCOc1cncc(-c2cnc(C(=O)N[C@@H](c3cc(NS(=O)(=O)C4CC4)ccn3)[C@H](C)N3C[C@H]4C[C@@H]3CO4)s2)n1 [I-168, N-((1R,2S)-2-((1R,4R)-2-oxa-5-azabicyclo[2.2.1]heptan-5-yl)-1-(4-(cyclopropanesulfonamido)pyridin-2-yl)propyl)-5-(6-ethoxypyrazin-2-yl)thiazole-2-carboxamide] |
| 25 to 50 nM | CCOc1cncc(-c2cnc(C(=O)N[C@H](COC)c3ccnc(NS(=O)(=O)C4CC4)n3)s2)n1 [I-268, (S)-N-(1-(2-(cyclopropanesulfonamido)pyrimidin-4-yl)-2-methoxyethyl)-5-(6-ethoxypyrazin-2-yl)thiazole-2-carboxamide] |
| 5 to 25 nM | O=C(N[C@@H](c1cc(NS(=O)(=O)C2CC2)ccn1)[C@H]1CCOC1)c1ncc(-c2cnn3ccc(Cl)cc23)s1 (single isomer, unassigned) [I-25] |
| 5 to 25 nM | CCOc1cncc(-c2cnc(C(=O)N[C@@H](CN3CC[C@](C)(O)C3)c3cccc(NS(=O)(=O)C(F)F)c3)s2)n1 [I-209, N-((R)-1-(3-((difluoromethyl)sulfonamido)phenyl)-2-((S)-3-hydroxy-3-methylpyrrolidin-1-yl)ethyl)-5-(6-ethoxypyrazin-2-yl)thiazole-2-carboxamide, formic acid salt] |
| ≤ 5 nM | C[C@H](CO)[C@@H](NC(=O)c1ncc(-c2cnn3ccc(Cl)cc23)s1)c1cc(NS(=O)(=O)C2CC2)ccn1 [I-230, 5-(5-chloropyrazolo[1,5-a]pyridin-3-yl)-N-((1R,2S)-1-(4-(cyclopropanesulfonamido)pyridin-2-yl)-3-hydroxy-2-methylpropyl)thiazole-2-carboxamide] |
| 5 to 25 nM | CCOc1cncc(-c2cnc(C(=O)N[C@@H](CN3CCOC[C@@H]3C)c3cc(NS(=O)(=O)C4CC4)ccn3)s2)n1 (single isomer, unassigned) [I-34] |
| 5 to 25 nM | CCOc1cncc(-c2cnc(C(=O)N[C@H](c3cc(NS(=O)(=O)C4CC4)ncn3)[C@@H]3CCOC3)s2)n1 [I-256, N-((S)-(6-(cyclopropanesulfonamido)pyrimidin-4-yl)((S)-tetrahydrofuran-3-yl)methyl)-5-(6-ethoxypyrazin-2-yl)thiazole-2-carboxamide] |
| 50 to 100 nM | C[C@@H](CN1CCCCC1)[C@@H](NC(=O)c1ncc(-c2cnn3ccc(Cl)cc23)s1)c1cc(NS(=O)(=O)C2CC2)ccn1 [I-55, 5-(5-chloropyrazolo[1,5-a]pyridin-3-yl)-N-((1R,2S)-1-(4-(cyclopropanesulfonamido)pyridin-2-yl)-2-methyl-3-(piperidin-1-yl)propyl)thiazole-2-carboxamide] |
| 5 to 25 nM | CCOc1cncc(-c2cnc(C(=O)N[C@@H](c3cc(NS(=O)(=O)C4CC4)ccn3)[C@@H](C)O)s2)n1 [I-265, N-((1S,2R)-1-(4-(cyclopropanesulfonamido)pyridin-2-yl)-2-hydroxypropyl)-5-(6-ethoxypyrazin-2-yl)thiazole-2-carboxamide] |
| 5 to 25 nM | CCOc1cncc(-c2cnc(C(=O)N[C@H](c3cc(NS(=O)(=O)C4CC4)ncn3)C3CCOCC3)s2)n1 (single isomer, unassigned) [I-254] |
| 5 to 25 nM | CCOc1cncc(-c2cnc(C(=O)N[C@]3(c4cccc(NS(=O)(=O)C(F)F)c4)C[C@H](O)C3)s2)n1 [I-202, N-((1s,3s)-1-(3-((difluoromethyl)sulfonamido)phenyl)-3-hydroxycyclobutyl)-5-(6-ethoxypyrazin-2-yl)thiazole-2-carboxamide] |

Reference: US20250270200A1, “CTPS1 INHIBITORS AND USES THEREOF” (Nimbus Clotho, Inc., priority 2022, published 2025)
